# Experimental data as given in publication PMC10578927, “An unconventional gatekeeper mutation sensitizes inositol hexakisphosphate kinases to an allosteric inhibitor” (eLife, 2023).
# How the values were obtained:
# [1] = molecular target: T1, MBP-HsIP6K1^L210V (Homo sapiens, UniProt Q92551, L210V); experiment: Hydrogen deuterium exchange mass spectrometry (HDX-MS), apo vs inhibitor-bound; assay type: binding; conditions: IP6K1^L210V apo vs bound to FMP-201300
# T1 construct: made in house; host or cells: E. coli Arctic Express
# T1 sequence (Q92551 whole entry L210V): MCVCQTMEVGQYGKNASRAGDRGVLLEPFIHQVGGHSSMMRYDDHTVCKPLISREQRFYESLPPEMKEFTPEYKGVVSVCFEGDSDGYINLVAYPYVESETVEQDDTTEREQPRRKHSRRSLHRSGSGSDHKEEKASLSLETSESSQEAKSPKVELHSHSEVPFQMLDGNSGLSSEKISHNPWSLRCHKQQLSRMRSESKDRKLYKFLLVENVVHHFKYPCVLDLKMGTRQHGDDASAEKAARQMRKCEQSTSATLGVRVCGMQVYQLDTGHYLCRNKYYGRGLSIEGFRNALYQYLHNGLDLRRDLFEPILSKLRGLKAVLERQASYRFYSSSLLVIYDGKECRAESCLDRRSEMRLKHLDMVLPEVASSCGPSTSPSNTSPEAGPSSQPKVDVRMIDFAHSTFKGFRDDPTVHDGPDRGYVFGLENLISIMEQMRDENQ
# Description: (§1) Prior to initiation of deuterium exchange reactions, enzymes were incubated with inhibitor or DMSO blank for 15 min at RT (final concentration: 3 µM enzyme, 50 µM inhibitor, in a buffer consisting of 20 mM HEPES 7.4, 50 mM NaCl, 1% DMSO). From this mixture, 5 µl was taken per sample and 45 µl of deuterated buffer was added to initiate deuterium exchange (final concentrations: 300 nM enzyme, 5 µM inhibitor; final buffer concentration: 20 mM HEPES 7.4, 50 mM NaCl, 85.63% deuterium, 0.1% DMSO). Reactions were carried out in triplicate at 3 (3, 30, and 300 s) or four different time points (0.3, 3, 30, and 300 s) and were quenched by the addition of 20 µl of ice-cold quench buffer (final concentration: 0.57 M GuaHCL, 0.86% formic acid). Samples were snap-frozen in liquid nitrogen and then stored at −80°C until mass analysis.
# (§2) Samples were rapidly thawed and injected onto an ultra-performance liquid chromatography (UPLC) at 2°C. […] Peptides were identified using data-dependent acquisition methods following tandem MS/MS experiments. MS/MS datasets were analyzed using MaxQuant against a database of purified proteins and known contaminants with an false discovery rate (FDR) cut-off of 1%.
# (§3) Deuterium incorporation of peptides was automatically calculated using HDExaminer Software (Sierra Analytics). […]
# [2] = molecular target: T2, MBP-HsIP6K1^wt (Homo sapiens, UniProt Q92551); experiment: as above; assay type: binding; conditions: IP6K1^wt apo vs inhibitor-bound
# T2 construct: made in house; host or cells: E. coli Arctic Express
# T2 sequence (Q92551 whole entry): as the sequence (Q92551 whole entry L210V) above, with V210L counted along it
# Description: as §1, §2, §3
compound,measurement,setting,value
O=C(O)c1ccc2c(c1)C(=O)N(c1ccc(-c3nc4ccc(N5C(=O)c6ccc(C(=O)O)cc6C5=O)cc4[nH]3)cc1)C2=O [FMP-201300],change in deuterium exchange rates upon inhibitor binding,[1],Major decreases in exchange rates were observed in proximity to the ATP-binding site
same,change in deuterium incorporation upon inhibitor binding,[2],no significant changes in deuterium incorporation were observed
